Test results as given in PubChem BioAssay (NCI).
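How tested: cells in 96-well plates exposed to compound for 48 hours at five concentrations. Definition used: TGI = concentration required for complete inhibition of growth.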

How the values were obtained:
Assay in all cases: DTP human tumour cell line panel, 48 h
M19-MEL melanoma = system: M19-MEL melanoma
HOP-18 NSCLC = system: HOP-18 NSCLC
DLD-1 colon = system: DLD-1 colon
LXFL 529 NSCLC = system: LXFL 529 NSCLC
SNB-78 CNS = system: SNB-78 CNS
RXF-631 renal = system: RXF-631 renal
MDA-N = system: MDA-N

| Compound | TGI (M19-MEL melanoma) [µM] | TGI (HOP-18 NSCLC) [µM] | TGI (DLD-1 colon) [µM] | TGI (LXFL 529 NSCLC) [µM] | TGI (SNB-78 CNS) [µM] | TGI (RXF-631 renal) [µM] | TGI (MDA-N) [µM] |
| --- | --- | --- | --- | --- | --- | --- | --- |
| CC1NC(=O)C2=C1C(N)=NC(=O)C2 (centres undefined) | > 100 | > 100 | > 100 | > 100 | > 100 |  |  |
| C[C@]12CCNC(=O)C=C1CC[C@@H]1C2CC[C@@]2(C)C1CC[C@@H]2OC(=O)COc1ccc(N(CCCl)CCCl)cc1 (some centres undefined) | 18.6 | 47.7 | 17.8 | 21.8 | > 70 | > 88.8 | 29 |
| CCOc1ccc(O)cc1[P+](c1ccccc1)(c1ccccc1)c1ccccc1 | 15.3 | 9.61 | 17.6 | 12.1 | 84.8 |  |  |
| NNC(=O)c1ccc(OCc2nc3ccccc3[nH]2)cc1 |  |  |  |  |  |  | > 100 |
| CSCCCNC(=O)c1csc(-c2csc(CCNC(=O)CNC(=O)CNC(=O)OC(C)(C)C)n2)n1 |  |  |  |  |  |  | > 100 |
| C=CCOC(=O)C1CCC(=O)N1C(=O)C(Cl)Cl (centres undefined) | > 100 | > 100 | > 100 | > 100 | > 100 |  |  |
| O=C(OC/C=C1C=C(OC(=O)c2ccccc2)/C(=N/N(C(=O)c2ccccc2)c2ccccc2)O\1)c1ccccc1 | 18.8 |  | 10.6 | 4.4 | 67.1 |  |  |
| O=C(C/C(CCC(=O)N(Cc1ccccc1)Cc1ccccc1)=N/Nc1ccc([N+](=O)[O-])cc1[N+](=O)[O-])c1ccccc1 | > 100 | > 100 | > 100 | > 100 | > 100 |  |  |
| NCCCCCCNCc1cccc2ccccc12 | > 100 | > 100 | > 100 | > 100 | > 100 |  |  |
| O=c1[nH]c(=O)n(C2OC(CO)C(O)C2O)cc1OCC(F)(F)F (centres undefined) | > 100 | > 100 | > 100 | > 100 | > 100 |  |  |
| COc1cc2c(cc1C1=NC(C)(C)CO1)OCO2 | > 100 | > 100 | > 100 | > 100 |  | > 100 |  |
| Nc1nc(N)c2cc(Sc3cccc(C(F)(F)F)c3)ccc2n1 |  |  |  |  |  |  | 13.9 |
| CCOC(=O)/C(=C/c1ccc(N(CCC#N)CCC#N)cc1C)NC(=O)/C=C/c1ccccc1 | > 100 |  | > 100 | > 100 | > 100 |  |  |
| Cc1cccc(NC(=O)/C=C/c2ccc([N+](=O)[O-])cc2)c1 |  |  |  |  |  |  | > 52.2 |
| O=C1C2C3C=C4c5ccccc5N(c5ccccc5)C4(C2C(=O)N1c1ccc(Br)cc1)[C@H]1C(=O)N(c2ccc(Br)cc2)C(=O)[C@@H]31 (some centres undefined) |  | > 100 | > 100 | > 100 | > 100 |  |  |
| COC(=O)/C=c1\s/c(=C\C(=O)OC)c2ccccc12 | > 100 | > 100 | > 100 | > 100 | > 100 | > 100 |  |
| COC1C2c3cc4c(cc3CC(C#N)(c3ccccc32)N1C(=O)c1ccccc1)OCO4 (centres undefined) |  | > 100 | > 100 | > 100 | > 100 | > 100 |  |
| Cn1c(=S)c2[nH]c(SCCN3C(=O)c4ccccc4C3=O)nc2n(C)c1=O |  |  |  |  |  |  | > 100 |
| CCCCCCCCCCCCCC(=O)CSCCNC(=O)CCNC(=O)[C@@H](O)C(C)(C)COP(=O)(O)OP(=O)(O)OCC1OC(n2cnc3c(N)ncnc32)C(O)C1OP(=O)(O)O (some centres undefined) | 35.3 | 31.7 | 41.1 | 32.5 | 36.5 |  |  |
